In patent US10238658B2, “1-pyrazolyl-3-(4-((2-anilinopyrimidin-4-yl) oxy) napththalen-1-yl) ureas as p38 MAP kinase inhibitors” (Respivert Limited, priority 2011, dated 2019):
pIC50: −log10 of the molar value.

Columns and labels:
A/J mice = assay: Cigarette smoke model: macrophage and neutrophil accumulation in BALF; type: in vivo, mouse; details: for % inhibition Macrophage in BALF / % inhibition Neutrophil in BALF: tobacco smoke
Experimental: A/J mice (males, 5 weeks old) were exposed to cigarette smoke (4% cigarette smoke, diluted with air) for 30 min/day for 11 days using a Tobacco Smoke Inhalation Experiment System for small animals (Model SIS-CS; Sibata Scientific Technology, Tokyo, Japan). […] At 12 hr after the last dosing, each of the animals was anesthetized, the trachea cannulated and bronchoalveolar lavage fluid (BALF) was collected. The numbers of alveolar macrophages and neutrophils were determined by FACS analysis (EPICS® ALTRA II, Beckman Coulter, Inc., Fullerton, Calif., USA) using anti-mouse MOMA2 antibody (macrophage) or anti-mouse 7/4 antibody (neutrophil). BALF was centrifuged and the supernatant was collected. The level of keratinocyte chemoattractant (KC; CXCL1) in BALF was quantitated using a Quentikine® mouse KC ELISA kit (R&D systems, Inc., Minneapolis, Minn., USA).

CXCL1 (KC) = assay: Cigarette smoke model: CXCL1 (KC) in BALF; type: in vivo, mouse; details: mice
Experimental: A/J mice (males, 5 weeks old) were exposed to cigarette smoke (4% cigarette smoke, diluted with air) for 30 min/day for 11 days using a Tobacco Smoke Inhalation Experiment System for small animals (Model SIS-CS; Sibata Scientific Technology, Tokyo, Japan). Test substances were administered intra-nasally (35 μL of solution in 50% DMSO/PBS) once daily for 3 days after the final cigarette smoke exposure. At 12 hr after the last dosing, each of the animals was anesthetized, the trachea cannulated and bronchoalveolar lavage fluid (BALF) was collected. The numbers of alveolar macrophages and neutrophils were determined by FACS analysis (EPICS® ALTRA II, Beckman Coulter, Inc., Fullerton, Calif., USA) using anti-mouse MOMA2 antibody (macrophage) or anti-mouse 7/4 antibody (neutrophil). BALF was centrifuged and the supernatant was collected. The level of keratinocyte chemoattractant (KC; CXCL1) in BALF was quantitated using a Quentikine® mouse KC ELISA kit (R&D systems, Inc., Minneapolis, Minn., USA).

ICAM-1 [1] = assay: Rhinovirus-induced ICAM-1 expression in BEAS2B cells; type: cell-based; details: Homo sapiens, BEAS-2B, read-out: IC50 Values for HRV Stimulated Release/Expression ICAM1 (BEAS2B)
Experimental: Human rhinovirus RV16 was obtained from the American Type Culture Collection (Manassas, Va.). Viral stocks were generated by infecting Hela cells with HRV until 80% of the cells were cytopathic.
BEAS2B cells were infected with HRV at an MOI of 5 and incubated for 2 hr at 33° C. with gentle shaking for to promote absorption. The cells were then washed with PBS, fresh media added and the cells were incubated for a further 72 hr. The supernatant was collected for assay of IL-8 concentrations using a Duoset ELISA development kit (R&D systems, Minneapolis, Minn.).
The level of cell surface ICAM-1 expression was determined by cell-based ELISA. At 72 hr after infection, cells were fixed with 4% formaldehyde in PBS. After quenching endogenous peroxidase by adding 0.1% sodium azide and 1% hydrogen peroxide, wells were washed with wash-buffer (0.05% Tween in PBS: PBS-Tween). […] The ICAM-1 signal was detected by adding substrate and reading at 450 nm with a reference wavelength of 655 nm using a spectrophotometer. The wells were then washed with PBS-Tween and total cell numbers in each well were determined by reading absorbance at 595 nm after Crystal Violet staining and elution by 1% SDS solution. The measured OD450-655 readings were corrected for cell number by dividing with the OD595 reading in each well. […]

ICAM-1 [2] = assay: Poly I:C-induced ICAM-1 expression in BEAS2B cells; type: cell-based; details: Homo sapiens, BEAS-2B, read-out: PolyIC/ICAM1 IC50 (BEAS2B)
Experimental: Poly I:C was used in these studies as a simple, RNA virus mimic. Poly I:C-Oligofectamine mixture (1 μg/mL Poly I:C, ±2% Oligofectamine, 25 μL; Invivogen Ltd., San Diego, Calif., and Invitrogen, Carlsbad, Calif., respectively) was transfected into BEAS2B cells (human bronchial epithelial cells, ATCC). Cells were pre-incubated with final concentrations of test compounds for 2 hr and the level of ICAM-1 expression on the cell surface was determined by cell-based ELISA. At a time point 18 hr after poly I:C transfection, cells were fixed with 4% formaldehyde in PBS (100 μL) and then endogenous peroxidase was quenched by the addition of washing buffer (100 μL, 0.05% Tween in PBS: PBS-Tween) containing 0.1% sodium azide and 1% hydrogen peroxide. Cells were washed with wash-buffer (3×200 μL). and after blocking the wells with 5% milk in PBS-Tween (100 μL) for 1 hr, the cells were incubated with anti-human ICAM-1 antibody (50 μL; Cell Signaling Technology, Danvers, Mass.) in 1% BSA PBS overnight at 4° C.
The cells were washed with PBS-Tween (3×200 μL) and incubated with the secondary antibody (100 μL; HRP-conjugated anti-rabbit IgG, Dako Ltd., Glostrup, Denmark). The cells were then incubated with of substrate (50 μL) for 2-20 min, followed by the addition of stop solution (50 μL, 1N H2SO4). The ICAM-1 signal was detected by reading […] the absorbance at 450 nm against a reference wavelength of 655 nm using a spectrophotometer. The cells were then washed with PBS-Tween (3×200 μL) and total cell numbers in each well were determined by reading absorbance at 595 nm after Crystal Violet staining (50 μL of a 2% solution in PBS) and elution by 1% SDS solution (100 μL) in distilled water. The measured OD 450-655 readings were corrected for cell number by dividing with the OD595 reading in each well. The inhibition of ICAM-1 expression was calculated at each concentration of test compound by comparison with vehicle control.

IL-8 = assay: LPS-induced IL-8 release in d-U937 cells; type: cell-based; details: Homo sapiens, dU937, dU937 cells
Procedure, shortened: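 U937 cells differentiated with PMA (100 ng/mL, 48–72 hr) were pre-incubated with compound for 2 hr, then stimulated with E. coli O111:B4 LPS (0.1 μg/mL) for 4 hr. Supernatant cytokine measured by sandwich ELISA; inhibition vs vehicle control at each concentration, REC50 taken from the concentration-response curve.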

SMILES | macrophage accumulation in BALF induced by cigarette smoke, effect in words (A/J mice; mice) | neutrophil accumulation in BALF induced by cigarette smoke, effect in words (A/J mice; mice) | % inhibition Macrophage in BALF (A/J mice; 0.32 μg/mL intra-nasal) | % inhibition Neutrophil in BALF (A/J mice; 0.32 μg/mL intra-nasal) | % inhibition Macrophage in BALF (A/J mice; 1.6 μg/mL intra-nasal) | % inhibition Neutrophil in BALF (A/J mice; 1.6 μg/mL intra-nasal) | % inhibition Macrophage in BALF (A/J mice; 8.0 μg/mL intra-nasal) | % inhibition Neutrophil in BALF (A/J mice; 8.0 μg/mL intra-nasal) | % inhibition Macrophage in BALF (A/J mice; 40 μg/mL intra-nasal) | % inhibition Neutrophil in BALF (A/J mice; 40 μg/mL intra-nasal) | cigarette smoke induced CXCL1 (KC) production in BALF, effect in words (CXCL1 (KC)) | pIC50 (ICAM-1 [1]) | pIC50 (ICAM-1 [2]) | pIC50 (IL-8)
Cc1ccc(-n2nc(C(C)(C)C)cc2NC(=O)Nc2ccc(Oc3ccnc(Nc4ccccc4)n3)c3ccccc23)cc1 [Example 1, 1-(3-(tert-Butyl)-1-(p-tolyl)-1H-pyrazol-5-yl)-3-(4-(2-(phenylamino)pyrimidin-4-yloxy)naphthalen-1-yl)urea] | dose-dependent inhibition | dose-dependent inhibition | 11% | 12% | 28% | 29% | 43% | 41% | 64% | 52% | inhibited | 10.64 |  | 
Cc1ccc(-n2nc(C(C)(C)C)cc2NC(=O)Nc2ccc(Oc3ccnc(Nc4cccc(O)c4)n3)c3ccccc23)cc1 [Example 2, 1-(3-(tert-Butyl)-1-(p-tolyl)-1H-pyrazol-5-yl)-3-(4-((2-((3-hydroxyphenyl)amino)pyrimidin-4-yl)oxy)naphthalen-1-yl)urea] |  |  |  |  |  |  |  |  |  |  |  |  | 8.37 | 8.57
